Our source for the T/C values is PubChem BioAssay AID330 (DTP/NCI, 2004).

This test has as its system P388 leukemia ip, CD2F1 mice, survival T/C. The test is described as follows: NCI In Vivo Anticancer Drug Screen. Data for tumor model P388 Leukemia (intraperitoneal) in CD2F1 (CDF1) mice. Conditions: endpoint: median survival time, higher = longer survival. The essentials: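 Mice carrying the transplanted tumor received test compound or vehicle. Survival was recorded in each group, and the value is the treated-group measurement divided by that of the vehicle-treated control group.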

Where [1] appears, read: dose: 60.0 mg/kg/injection, schedule: Q01DX005 (ip), vehicle: Klucel (hydroxypropylcellulose) (HPC).
Setting [2] is: dose: 120.0 mg/kg/injection, schedule: Q01DX005 (ip), vehicle: Klucel (hydroxypropylcellulose) (HPC).
Where [3] appears, read: dose: 240.0 mg/kg/injection, schedule: Q01DX005 (ip), vehicle: Klucel (hydroxypropylcellulose) (HPC).
[4] abbreviates: dose: 100.0 mg/kg/injection, schedule: Q04DX002 (ip), vehicle: saline.
Setting [5] is: dose: 200.0 mg/kg/injection, schedule: Q04DX002 (ip), vehicle: saline.
[6] abbreviates: dose: 400.0 mg/kg/injection, schedule: Q04DX002 (ip), vehicle: saline.
[7] abbreviates: dose: 25.0 mg/kg/injection, schedule: Q01DX009 (ip), vehicle: saline.
[8] abbreviates: dose: 50.0 mg/kg/injection, schedule: Q01DX009 (ip), vehicle: saline.
The mark [9] stands for this setting: dose: 100.0 mg/kg/injection, schedule: Q01DX009 (ip), vehicle: saline.

“And” between values parts separate entries of the source, which are not always exact repeats. Identical values can stand only once. Toxic doses and inconclusive results are not listed.

In the case of `CCOC(=O)Nc1cc(NCC(=O)c2ccc3ccccc3c2)c([N+](=O)[O-])c(N)n1`, the T/C under setting [1] is 92 % of control, the T/C under setting [2] is 91 % of control and the T/C under setting [3] was 98 % of control.
For `CCN(CC)CCOC(=O)c1ccc(NC(=S)Nc2ccccc2)cc1`, the T/C is, setting by setting: (dose: 50.0 mg/kg/injection, schedule: Q01DX005 (ip), vehicle: saline with Tween-80) 98 % of control; (dose: 100.0 mg/kg/injection, schedule: Q01DX005 (ip), vehicle: saline with Tween-80) 90 % of control.
`CCOC(=O)Nc1cc(Cl)c([N+](=O)[O-])c([N+](=O)[O-])n1`: the T/C is 101 % of control under setting [4], 103 % of control under setting [5] and 110 % of control under setting [6].
For `CN1CCN(CN2C(=O)C3C4C=CC(C3C2=O)C2C3C(=O)N(CN5CCN(C)CC5)C(=O)C3C42)CC1` (stereo unspecified), the T/C runs as follows: (dose: 6.25 mg/kg/injection, schedule: Q01DX009 (ip), vehicle: water) 103 % of control; (dose: 7.5 mg/kg/injection, schedule: Q01DX005 (ip), vehicle: water) 100 % of control; (dose: 7.5 mg/kg/injection, schedule: Q01DX009 (ip), vehicle: water) 99 % of control; (dose: 12.5 mg/kg/injection, schedule: Q01DX009 (ip), vehicle: water) 104 % of control; (dose: 15.0 mg/kg/injection, schedule: Q01DX005 (ip), vehicle: water) 101 % of control and 96 % of control; (dose: 15.0 mg/kg/injection, schedule: Q01DX009 (ip), vehicle: water) 105 % of control. For the same molecule, the T/C by setting is: (dose: 24.8 mg/kg/injection, schedule: Q01DX009 (ip), vehicle: water) 113 % of control; under setting [7], 99 % of control; (dose: 25.0 mg/kg/injection, schedule: Q01DX009 (ip), vehicle: water) 104 % of control; (dose: 26.8 mg/kg/injection, schedule: Q01DX009 (ip), vehicle: water) 106 % of control and 118 % of control; (dose: 30.0 mg/kg/injection, schedule: Q01DX005 (ip), vehicle: water) 107 % of control and 119 % of control; (dose: 30.0 mg/kg/injection, schedule: Q01DX009 (ip), vehicle: water) 116 % of control and 121 % of control. Further, the T/C was 151 % of control (dose: 44.6 mg/kg/injection, schedule: Q01DX009 (ip), vehicle: water); 106 % of control under setting [8]; 151 % of control (dose: 60.0 mg/kg/injection, schedule: Q01DX005 (ip), vehicle: water); 165 % of control and 161 % of control (dose: 60.0 mg/kg/injection, schedule: Q01DX009 (ip), vehicle: water); 172 % of control (dose: 68.8 mg/kg/injection, schedule: Q01DX009 (ip), vehicle: water); 164 % of control and 190 % of control (dose: 74.4 mg/kg/injection, schedule: Q01DX009 (ip), vehicle: water). Also, the T/C under setting [9] is 211 % of control; the T/C (dose: 100.0 mg/kg/injection, schedule: Q01DX009 (ip), vehicle: water) was 200 % of control and 207 % of control; the T/C (dose: 120.0 mg/kg/injection, schedule: Q01DX009 (ip), vehicle: water) is 111 % of control; the T/C (dose: 124.0 mg/kg/injection, schedule: Q01DX009 (ip), vehicle: water) was 105 % of control.
Consider `Cn1/c(=N\NC(=O)c2ccncc2)sc2ccccc21`, for which the T/C (dose: 6.25 mg/kg/injection, schedule: Q01DX009 (ip), vehicle: Klucel (hydroxypropylcellulose) (HPC)) is 110 % of control; the T/C (dose: 12.5 mg/kg/injection, schedule: Q01DX009 (ip), vehicle: Klucel (hydroxypropylcellulose) (HPC)) was 107 % of control; the T/C (dose: 25.0 mg/kg/injection, schedule: Q01DX009 (ip), vehicle: Klucel (hydroxypropylcellulose) (HPC)) is 115 % of control.
Consider `CC[C@]12C=CCN3CC[C@@]4(c5ccc(OC)cc5N(C)[C@H]4[C@@](O)(C(=O)OC)[C@@H]1OC(C)=O)[C@@H]32`, for which the T/C (dose: 50.0 mg/kg/injection, schedule: Q01DX005 (ip), vehicle: Klucel (hydroxypropylcellulose) (HPC)) is 98 % of control and the T/C (dose: 100.0 mg/kg/injection, schedule: Q01DX005 (ip), vehicle: Klucel (hydroxypropylcellulose) (HPC)) is 97 % of control.
On to `CN1N(C)P(=S)(Oc2ccccc2)N(C)N(C)P1(=S)Oc1ccccc1` (stereo unspecified), for which the T/C under setting [1] is 98 % of control, the T/C under setting [2] is 98 % of control and the T/C under setting [3] is 93 % of control.
As for `O=C1CSC(c2ccccc2)N1c1nncs1` (stereo unspecified), the T/C by setting is: (dose: 30.0 mg/kg/injection, schedule: Q01DX005 (ip), vehicle: Klucel (hydroxypropylcellulose) (HPC)) 100 % of control; under setting [1], 101 % of control; under setting [2], 101 % of control; under setting [3], 103 % of control.
Regarding `Cc1cc(Cl)nn2cc(C(=O)O)nc12`, the T/C runs as follows: (dose: 50.0 mg/kg/injection, schedule: Q01DX001 (ip), vehicle: Klucel (hydroxypropylcellulose) (HPC)) 104 % of control; (dose: 100.0 mg/kg/injection, schedule: Q01DX001 (ip), vehicle: Klucel (hydroxypropylcellulose) (HPC)) 96 % of control; (dose: 200.0 mg/kg/injection, schedule: Q01DX001 (ip), vehicle: Klucel (hydroxypropylcellulose) (HPC)) 97 % of control.
As to `OCC1C2CCCC12` (stereo unspecified), the T/C is, setting by setting: (dose: 50.0 mg/kg/injection, schedule: Q01DX009 (ip), vehicle: saline with Tween-80) 95 % of control; (dose: 100.0 mg/kg/injection, schedule: Q01DX009 (ip), vehicle: saline with Tween-80) 114 % of control; (dose: 200.0 mg/kg/injection, schedule: Q01DX009 (ip), vehicle: saline with Tween-80) 104 % of control.
On to `COc1ccc(C23OCCN2C(=O)c2ccccc23)cc1` (stereo unspecified), for which the T/C (dose: 60.0 mg/kg/injection, schedule: Q01DX005 (ip), vehicle: saline + Tween-80 + alcohol) is 99 % of control; the T/C (dose: 120.0 mg/kg/injection, schedule: Q01DX005 (ip), vehicle: saline + Tween-80 + alcohol) was 100 % of control; the T/C (dose: 240.0 mg/kg/injection, schedule: Q01DX005 (ip), vehicle: saline + Tween-80 + alcohol) was 101 % of control.
Turning to `COc1cc2c3cc1Oc1c(O)c(OC)cc4c1[C@H](Cc1ccc(cc1)Oc1cc(ccc1O)C[C@H]3N(C)CC2)N(C)CC4`, the T/C (dose: 1.25 mg/kg/injection, schedule: Q01DX009 (ip), vehicle: water) is 100 % of control; the T/C (dose: 2.5 mg/kg/injection, schedule: Q01DX009 (ip), vehicle: water) is 101 % of control; the T/C (dose: 5.0 mg/kg/injection, schedule: Q01DX009 (ip), vehicle: water) was 97 % of control; the T/C (dose: 10.0 mg/kg/injection, schedule: Q01DX009 (ip), vehicle: water) is 101 % of control; the T/C (dose: 20.0 mg/kg/injection, schedule: Q01DX009 (ip), vehicle: other) is 103 % of control; the T/C (dose: 20.0 mg/kg/injection, schedule: Q01DX009 (ip), vehicle: water) was 94 % of control. In addition, the T/C is, setting by setting: (dose: 40.0 mg/kg/injection, schedule: Q01DX009 (ip), vehicle: other) 94 % of control; (dose: 80.0 mg/kg/injection, schedule: Q01DX009 (ip), vehicle: other) 109 % of control.
`N#CC1=C2CCCCC2(O)NC1=O` (stereo unspecified): the T/C (dose: 6.25 mg/kg/injection, schedule: Q01DX005 (ip), vehicle: Klucel (hydroxypropylcellulose) (HPC)) is 108 % of control and the T/C (dose: 12.5 mg/kg/injection, schedule: Q01DX005 (ip), vehicle: Klucel (hydroxypropylcellulose) (HPC)) was 115 % of control.
Consider `Cc1ccc2nc3sc(=O)sc3nc2c1`, for which the T/C reads like this: under setting [1], 101 % of control; under setting [2], 107 % of control.
Turning to `C[N+]1(C)N=C([O-])N(c2ccc(Cl)cc2)C1=O`, the T/C was 100 % of control under setting [4], 103 % of control under setting [5] and 102 % of control under setting [6].
Turning to `COc1cc(C)c(C(=O)Oc2cc(C)c(C(=O)O)c(O)c2)c(O)c1`, the T/C under setting [8] is 90 % of control and the T/C under setting [9] was 95 % of control.
As to `O=C(Cn1ccnc1[N+](=O)[O-])N(CCO)CCO`, the T/C reads like this: (dose: 6.25 mg/kg/injection, schedule: Q01DX009 (ip), vehicle: saline) 102 % of control; (dose: 12.5 mg/kg/injection, schedule: Q01DX009 (ip), vehicle: saline) 111 % of control; under setting [7], 111 % of control; under setting [8], 105 % of control; under setting [9], 105 % of control; (dose: 200.0 mg/kg/injection, schedule: Q01DX009 (ip), vehicle: saline) 102 % of control. The T/C by setting is: (dose: 400.0 mg/kg/injection, schedule: Q01DX009 (ip), vehicle: saline) 105 % of control; (dose: 800.0 mg/kg/injection, schedule: Q01DX009 (ip), vehicle: saline) 102 % of control.
